The test system of data set [1] is IL-6 levels in human whole blood stimulated with a TLR2 agonist. In words: IRAK4 Whole Blood Assay (lipoteichoic acid/TLR2-stimulated IL-6). Format: cell-based. The conditions noted are these: lipoteichoic acid 10 μg/mL, IL-6 readout. Put shortly:
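ACD-A-anticoagulated human whole blood was preincubated with compounds for 60 min at 37 °C under 5% CO2. It was then stimulated with 10 μg/mL lipoteichoic acid (final) in RPMI for 5 h. IL-6 in plasma supernatants was measured by flow cytometry bead assay.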

In another data set the target is IRAK4 (Homo sapiens (Human), UniProt Q9NWZ3). In words: IRAK4 Inhibition Assay. The conditions noted are these: ATP 500 μM; IRAK4 0.6 nM. It counts as biochemical. Put shortly:
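Enzyme 0.6 nM, ATP 500 μM, FL-peptide 1.5 μM, DMSO 1.6%; HEPES pH 7.2/MgCl2/Brij 35/DTT buffer. RT, 60 min, EDTA stop. Mobility-shift product/substrate ratio; % inhib vs no-enzyme and vehicle controls.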

Another data set in a line: Caco Permeability Assay. Format: in vitro ADME. The note with it: human, Caco-2, Caco-2 cells, 3 μM compound. How it is done: Thirteen to 27 days prior to assay, Caco-2 cells were seeded onto collagen-coated polycarbonate filter membranes in 24-well transwell plates at a density of 1.45×10^5 cells/cm^2, approximately 4.8×10^4 cells per well. The cells were grown in a culture medium consisting of DMEM supplemented with 10% fetal bovine serum, 10 mM HEPES, 1% nonessential amino acids, 2 mM L-glutamine, 100 U/mL penicillin-G, and 100 μg/mL streptomycin. The culture medium was replaced every 3 days and the cells were maintained at 37° C. in a 95% relative humidity and 5% CO2 atmosphere. The cells were evaluated for tight junction formation just prior to assay. The test compound was solubilized to 10 mM in 100% DMSO and diluted to 3 μM in assay buffer. Permeability studies were initiated by adding 200 μL assay buffer plus/minus compound to the apical transwell compartment and 600 μL assay buffer plus/minus compound to the basolateral compartment of the 24-well transwell low-binding cluster plate. For apical-to-basolateral (A to B) permeability (absorptive direction), buffer containing compound was placed in the apical compartment (donor wells), while buffer alone was placed in the corresponding basolateral compartments (receiver wells). For basolateral-to-apical (B to A) permeability (secretive direction), buffer containing compound was placed in the basolateral compartment (donor wells), while buffer alone was placed in the corresponding apical compartments (receiver wells). Transwells were then incubated for 2 hours at 37° C. in a 95% relative humidity and 5% CO2 atmosphere with gentle agitation. Following incubation, 100 μL was removed from each apical and basolateral compartment and transferred to 96-well low binding plates that had been previously loaded with 100 µL/well of acetonitrile containing 250 nM propranolol, 250 nM diclofenac, and 500 nM tolbutamide as internal standards. The samples were subsequently analyzed by LC-MS/MS to determine concentrations of compound.

The term EC50 denotes the midpoint of the concentration-response curve. In general, IC50 refers to the point on the concentration scale where inhibition reaches its midpoint. In general, Papp refers to a coefficient for how fast a substance crosses the barrier. Lower therefore signals slow passage.

Sequence of IRAK4 (Q9NWZ3 whole entry): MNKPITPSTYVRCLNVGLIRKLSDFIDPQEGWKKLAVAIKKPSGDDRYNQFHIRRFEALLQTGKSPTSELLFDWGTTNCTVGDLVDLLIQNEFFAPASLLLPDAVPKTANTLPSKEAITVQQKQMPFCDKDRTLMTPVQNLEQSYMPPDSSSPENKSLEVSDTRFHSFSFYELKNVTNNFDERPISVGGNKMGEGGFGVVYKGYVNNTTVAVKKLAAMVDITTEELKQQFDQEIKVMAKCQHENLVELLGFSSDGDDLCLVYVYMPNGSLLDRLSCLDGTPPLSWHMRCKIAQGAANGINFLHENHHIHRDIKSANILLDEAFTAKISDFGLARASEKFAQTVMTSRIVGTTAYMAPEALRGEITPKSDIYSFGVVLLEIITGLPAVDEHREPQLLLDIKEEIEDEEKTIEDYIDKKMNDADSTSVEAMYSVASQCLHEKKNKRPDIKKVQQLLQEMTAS

`CC(=O)N[C@H]1CC[C@H](NC(=O)c2cnc(-c3cnn4cc(Cl)cnc34)cc2NC(C)C)CC1` [Example 23, N-((1r,4r)-4-acetamidocyclohexyl)-6-(6-chloropyrazolo[1,5-a]pyrimidin-3-yl)-4-(isopropylamino) nicotinamide] had an EC50 in data set [1] (Homo sapiens) of 720 nM. For the same compound, the 50% inhibitory concentration (IC50) on IRAK4 was 10 nM. The same compound returned a Papp at 2 h, 3 µM in “Caco Permeability Assay” of 1.8 ×10⁻⁶ cm/s.

Compound `CC(C)(O)[C@H](F)CNC(=O)c1cnc(-c2cnn3cc(C#N)cnc23)cc1Nc1ccn(CC(F)F)n1` [Example 230, (R)-6-(6-cyanopyrazolo[1,5-a]pyrimidin-3-yl)-4-((1-(2,2-difluoroethyl)-1H-pyrazol-3-yl)amino)-N-(2-fluoro-3-hydroxy-3-methylbutyl)nicotinamide] displayed an EC50 in data set [1] (Homo sapiens) of 430 nM. For the same compound, on IRAK4, the IC50 is 3 nM. Also, the Papp at 2 h, 3 µM in “Caco Permeability Assay” is under 1.5 ×10⁻⁶ cm/s.

Turning to `CC(C)n1cc(Nc2cc(-c3cnc4cc(C#N)cnn34)ncc2C(=O)NCCC(C)(C)O)cn1` [Example 287, 6-(7-cyanoimidazo[1,2-b]pyridazin-3-yl)-N-(3-hydroxy-3-methylbutyl)-4-((1-isopropyl-1H-pyrazol-4-yl)amino)nicotinamide], in data set [1] (Homo sapiens), the EC50 was found to be 450 nM. On IRAK4, the IC50 came out at 9 nM. In “Caco Permeability Assay”, this compound displayed a Papp at 2 h, 3 µM of 1.8 ×10⁻⁶ cm/s.

In data set [1] (Homo sapiens), `CCCNc1cc(-c2cnc3cc(Cl)cnn23)ncc1C(=O)NC[C@@H](F)C(C)(C)O` [Example 179, (R)-6-(7-chloroimidazo[1,2-b]pyridazin-3-yl)-N-(2-fluoro-3-hydroxy-3-methylbutyl)-4-(propylamino)nicotinamide] showed an EC50 of 700 nM. The IC50 at IRAK4 worked out at 3 nM. The Papp at 2 h, 3 µM in “Caco Permeability Assay” came out at 16.8 ×10⁻⁶ cm/s.

In data set [1] (Homo sapiens), `C[C@@H](CO)Nc1cc(-c2cnn3cc(Cl)cnc23)ncc1C(=O)NC[C@@H](F)C(C)(C)O` [Example 31, 6-(6-chloropyrazolo[1,5-a]pyrimidin-3-yl)-N—((R)-2-fluoro-3-hydroxy-3-methylbutyl)-4-(((S)-1-hydroxypropan-2-yl)amino)nicotinamide] showed an EC50 of 140 nM. The IC50 at IRAK4 turned out to be 7 nM. Also, the Papp at 2 h, 3 µM in “Caco Permeability Assay” was under 1.5 ×10⁻⁶ cm/s.

As for `CC(C)(O)[C@H](F)CNC(=O)c1cnc(-c2cnc3cc(C#N)cnn23)cc1NC1COC1` [Example 147, (R)-6-(7-cyanoimidazo[1,2-b]pyridazin-3-yl)-N-(2-fluoro-3-hydroxy-3-methylbutyl)-4-(oxetan-3-ylamino) nicotinamide], the EC50 in data set [1] (Homo sapiens) stood at 90 nM. In addition, the IC50 on IRAK4 is 3 nM. In the data set “Caco Permeability Assay”, this compound showed a Papp at 2 h, 3 µM of under 1.5 ×10⁻⁶ cm/s.

Consider `CC(C)(O)[C@H](F)CNC(=O)c1cnc(-c2cnn3cc(C#N)cnc23)cc1N[C@@H]1CCC[C@@H]1F` [Example 105, 6-(6-cyanopyrazolo[1,5-a]pyrimidin-3-yl)-N—((R)-2-fluoro-3-hydroxy-3-methylbutyl)-4-(((1R,2S)-2-fluorocyclopentyl)amino) nicotinamide], for which the EC50 in data set [1] (Homo sapiens) came to 240 nM. Also, on IRAK4, the IC50 stood at 7 nM. For the same compound, in the data set “Caco Permeability Assay”, the Papp at 2 h, 3 µM is 8.6 ×10⁻⁶ cm/s.

With `CCn1cc(Nc2cc(-c3cnc4cc(C#N)cnn34)ncc2C(=O)NC[C@@H](F)C(C)(C)O)cn1` [Example 267, (R)-6-(7-cyanoimidazo[1,2-b]pyridazin-3-yl)-4-((1-ethyl-1H-pyrazol-4-yl)amino)-N-(2-fluoro-3-hydroxy-3-methylbutyl)nicotinamide], in data set [1] (Homo sapiens), the EC50 stood at 130 nM. The IC50 at IRAK4 was 2 nM. Moreover, the Papp at 2 h, 3 µM in “Caco Permeability Assay” was under 1.5 ×10⁻⁶ cm/s.

`CC(C)(F)[C@H](F)CNC(=O)c1cnc(-c2cnc3cc(Cl)cnn23)cc1NC1COC1` [Example 189, (R)-6-(7-chloroimidazo[1,2-b]pyridazin-3-yl)-N-(2,3-difluoro-3-methylbutyl)-4-(oxetan-3-ylamino)nicotinamide] came in with an EC50 in data set [1] (Homo sapiens) of 490 nM. Moreover, the IC50 at IRAK4 worked out at 7 nM. In addition, the Papp at 2 h, 3 µM in “Caco Permeability Assay” turned out to be 31.2 ×10⁻⁶ cm/s.

`Cc1cnn2c(-c3cc(NC4CC4)c(C(=O)NC[C@@H](F)C(C)(C)O)cn3)cnc2c1` [Example 184, (R)-4-(cyclopropylamino)-N-(2-fluoro-3-hydroxy-3-methylbutyl)-6-(7-methylimidazo[1,2-b]pyridazin-3-yl)nicotinamide] displayed a concentration giving a half-maximal response (EC50) in data set [1] (Homo sapiens) of 510 nM. Further, the IC50 on IRAK4 came out at 5 nM. The same compound came in with a Papp at 2 h, 3 µM in “Caco Permeability Assay” of 3.4 ×10⁻⁶ cm/s.

As for `CC(C)(O)c1cnc(Nc2cc(-c3cnn4cc(Cl)cnc34)ncc2C(=O)NC[C@@H](F)C(C)(C)O)s1` [Example 2, (R)-6-(6-chloropyrazolo[1,5-a]pyrimidin-3-yl)-N-(2-fluoro-3-hydroxy-3-methylbutyl)-4-((5-(2-hydroxypropan-2-yl)thiazol-2-yl)amino)nicotinamide], in data set [1] (Homo sapiens), the EC50 came out at 880 nM. The IC50 at IRAK4 turned out to be 8 nM. The compound further displayed a Papp at 2 h, 3 µM in “Caco Permeability Assay” of under 1.5 ×10⁻⁶ cm/s.

In turn, `CC(C)(O)CNc1cc(-c2cnn3cc(Cl)cnc23)ncc1C(=O)NC[C@@H](F)C(C)(C)O` [Example 58, (R)-6-(6-chloropyrazolo[1,5-a]pyrimidin-3-yl)-N-(2-fluoro-3-hydroxy-3-methylbutyl)-4-((2-hydroxy-2-methylpropyl)amino)nicotinamide] had an EC50 in data set [1] (Homo sapiens) of 350 nM. In addition, the IC50 on IRAK4 turned out to be 14 nM. In “Caco Permeability Assay”, this compound returned a Papp at 2 h, 3 µM of under 1.5 ×10⁻⁶ cm/s.

As to `Cc1cnn2c(-c3cc(NC4CCC4)c(C(=O)NC[C@@H](F)C(C)(C)O)cn3)cnc2c1` [Example 185, (R)-4-(cyclobutylamino)-N-(2-fluoro-3-hydroxy-3-methylbutyl)-6-(7-methylimidazo[1,2-b]pyridazin-3-yl)nicotinamide], in data set [1] (Homo sapiens), a half-maximal effect (EC50) was put at 820 nM. Moreover, the IC50 on IRAK4 was determined as 7 nM. The Papp at 2 h, 3 µM in the data set “Caco Permeability Assay” came out at 4.7 ×10⁻⁶ cm/s.

For the compound `CC(C)(F)Cn1cc(Nc2cc(-c3cnn4cc(C#N)cnc34)ncc2C(=O)NC[C@@H](F)C(C)(C)O)cn1` [Example 235, (R)-6-(6-cyanopyrazolo[1,5-a]pyrimidin-3-yl)-4-((1-(2-fluoro-2-methylpropyl)-1H-pyrazol-4-yl)amino)-N-(2-fluoro-3-hydroxy-3-methylbutyl)nicotinamide], in data set [1] (Homo sapiens), it took 200 nM to reach a half-maximal effect (EC50). In addition, on IRAK4, the IC50 turned out to be 2 nM. In the data set “Caco Permeability Assay”, this compound displayed a Papp at 2 h, 3 µM of 2.3 ×10⁻⁶ cm/s.

In data set [1] (Homo sapiens), `CC(C)Nc1cc(-c2cnc3cc(C#N)cnn23)ncc1C(=O)NC[C@@H](F)C(C)(C)O` [Example 145, (R)-6-(7-cyanoimidazo[1,2-b]pyridazin-3-yl)-N-(2-fluoro-3-hydroxy-3-methylbutyl)-4-(isopropylamino)nicotinamide] yielded a concentration for a half-maximal effect (EC50) of 240 nM. For the same compound, the IC50 at IRAK4 stood at 2 nM. The compound also displayed an apparent permeability coefficient (Papp) at 2 h, 3 µM in “Caco Permeability Assay” of 12.3 ×10⁻⁶ cm/s.

`CC(C)(O)[C@H](F)CNC(=O)c1cnc(-c2cnn3cc(Cl)cnc23)cc1NC1CCC1` [Example 60, (R)-6-(6-chloropyrazolo[1,5-a]pyrimidin-3-yl)-4-(cyclobutylamino)-N-(2-fluoro-3-hydroxy-3-methylbutyl)nicotinamide] came in with an EC50 in data set [1] (Homo sapiens) of 4930 nM. Moreover, the IC50 at IRAK4 was 4 nM. In the data set “Caco Permeability Assay”, this compound showed a Papp at 2 h, 3 µM of 27 ×10⁻⁶ cm/s.

`CC(C)(O)[C@H](F)CNC(=O)c1cnc(-c2cnn3cc(Cl)cnc23)cc1NC1CCC(F)C1` (stereo partly drawn) [Example 83, 6-(6-chloropyrazolo[1,5-a]pyrimidin-3-yl)-N—((R)-2-fluoro-3-hydroxy-3-methylbutyl)-4-((3-fluorocyclopentyl)amino)nicotinamide] showed an EC50 in data set [1] of 810 nM. Further, the IC50 at IRAK4 was found to be 1 nM. In the data set “Caco Permeability Assay”, the apparent permeability (Papp) at 2 h, 3 µM is 15.9 ×10⁻⁶ cm/s.

`CC(C)(O)[C@H](F)CNC(=O)c1cnc(-c2cnc3cc(C#N)cnn23)cc1NC1CCOC1` (stereo partly drawn) [Example 201, 6-(7-cyanoimidazo[1,2-b]pyridazin-3-yl)-N—((R)-2-fluoro-3-hydroxy-3-methylbutyl)-4-((tetrahydrofuran-3-yl)amino) nicotinamide] had an EC50 in data set [1] (Homo sapiens) of 80 nM. The IC50 at IRAK4 turned out to be 3 nM. The Papp at 2 h, 3 µM in “Caco Permeability Assay” is under 1.5 ×10⁻⁶ cm/s.

For `CC(C)(O)[C@H](F)CNC(=O)c1cnc(-c2cnn3cc(Cl)cnc23)cc1NCC(F)F` [Example 163, (R)-6-(6-chloropyrazolo[1,5-a]pyrimidin-3-yl)-4-((2,2-difluoroethyl)amino)-N-(2-fluoro-3-hydroxy-3-methylbutyl) nicotinamide], the EC50 in data set [1] (Homo sapiens) came out at 760 nM. The IC50 at IRAK4 is 6 nM. Further, in the data set “Caco Permeability Assay”, the Papp at 2 h, 3 µM stood at 19.1 ×10⁻⁶ cm/s.

For `CC(C)(O)[C@H](F)CNC(=O)c1cnc(-c2cnn3cc(Cl)cnc23)cc1NC1COC1` [Example 5, (R)-6-(6-chloropyrazolo[1,5-a]pyrimidin-3-yl)-N-(2-fluoro-3-hydroxy-3-methylbutyl)-4-(oxetan-3-ylamino)nicotinamide], the midpoint of the response in data set [1] (Homo sapiens), the EC50, lay at 100 nM. Besides, the IC50 on IRAK4 stood at 3 nM. In “Caco Permeability Assay”, this compound had a Papp at 2 h, 3 µM of 17.5 ×10⁻⁶ cm/s.
